The assay concerns the target T1, HIV integrase (Human immunodeficiency virus type 1 group M subtype B, UniProt P12497, F1332H).
T1 construct: HIV integrase full length gene; made in house; host or cells: Escherichia coli BL21(DE3), plasmid pET21a-INH
In words: Determination of enzyme (HIV integrase) inhibitory activity. Type of assay: biochemical. Conditions: recombinant HIV integrase (F185H), strand transfer ELISA, absorbance at 450 nm. In short, it runs like this:
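Full-length integrase with F185H, expressed in E. coli and purified, was reacted for 60 min at 37 °C with compound and biotinylated donor DNA bound to streptavidin plates. Target DNA was added for 10 min, then anti-digoxigenin-peroxidase detection at A450; IC50 from % inhibition versus enzyme-free blank.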
In general terms: An ELISA detects its analyte on a solid surface through an enzyme-linked reagent.

Among the data in US7211572B2 (Japan Tobacco Inc., priority 2003, dated 2007) are IC50 values, retold here.

Structures can show the parent of a compound that is named as a salt.

For the compound `O=C(c1cn2ccn(Cc3cccc(Cl)c3)c(=O)c2c(O)c1=O)N1CCC(O)C1` (stereo not shown) [Example 198, 2-(3-chlorobenzyl)-9-hydroxy-7-(3-hydroxypyrrolidine-1-carbonyl)-2H-pyrido[1,2-a]pyrazine-1,8-dione hydrochloride], the half-inhibitory concentration (IC50) (commonly the concentration needed to halve the response being measured) lay in the range of 10 to 100 nM.
The same measure for `CN(C(=O)Cn1ccn2ccc(=O)c(O)c2c1=O)c1ccccc1` [Example 226, 2-(9-hydroxy-1,8-dioxo-1,8-dihydro-pyrido[1,2-a]pyrazin-2-yl)-N-methyl-N-phenylacetamide hydrochloride]: 100 to 1000 nM.
The same measure for `CC(C)c1cn(Cc2ccc(Cl)c(Cl)c2)c(=O)c2c(O)c(=O)ccn12` [Example 78, 2-(3,4-dichlorobenzyl)-9-hydroxy-4-isopropyl-2H-pyrido[1,2-a]pyrazine-1,8-dione]: under 10 nM; for `CCCc1cn(Cc2ccc(Cl)c(Cl)c2)c(=O)c2c(O)c(=O)ccn12` [Example 84, 2-(3,4-dichlorobenzyl)-9-hydroxy-4-propyl-2H-pyrido[1,2-a]pyrazine-1,8-dione]: under 10 nM; for `CC(C)C(=O)c1cn2c(c(O)c1=O)C(=O)N(Cc1ccc(F)cc1)CC2` [Example 385, 2-(4-fluorobenzyl)-9-hydroxy-7-isobutyryl-3,4-dihydro-2H-pyrido[1,2-a]pyrazine-1,8-dione]: 10 to 100 nM.
The same measure for `N#CCc1cc(=O)c(O)c2n1CCN(Cc1ccc(Cl)c(Cl)c1)C2=O` [Example 75, [2-(3,4-dichlorobenzyl)-9-hydroxy-1,8-dioxo-1,3,4,8-tetrahydro-2H-pyrido[1,2-a]pyrazin-6-yl]acetonitrile]: 10 to 100 nM; for `O=C(O)c1cn2ccn(Cc3cccc(Cl)c3)c(=O)c2c(O)c1=O` [Example 152, 2-(3-chlorobenzyl)-9-hydroxy-1,8-dioxo-1,8-dihydro-2H-pyrido[1,2-a]pyrazine-7-carboxylic acid hydrochloride]: 100 to 1000 nM.
Turning to `Cn1ncnc1-c1cn2ccn(Cc3ccc(F)c(Cl)c3)c(=O)c2c(O)c1=O` [Example 405, 2-(3-chloro-4-fluorobenzyl)-9-hydroxy-7-(2-methyl-2H-1,2,4-triazol-3-yl)-2H-pyrido[1,2-a]pyrazine-1,8-dione hydrochloride], the half-maximal inhibitory concentration (IC50) was under 10 nM.
The same measure for `CC(C)C(=O)Nc1cn2ccn(Cc3cccc(Cl)c3)c(=O)c2c(O)c1=O` [Example 239, N-[2-(3-chlorobenzyl)-9-hydroxy-1,8-dioxo-1,8-dihydro-2H-pyrido[1,2-a]pyrazin-7-yl]isobutyramide]: under 10 nM; for `CC(C)c1cn(Cc2cccc(Cl)c2)c(=O)c2c(O)c(=O)c(-c3ccccc3)cn12` [Example 131, 2-(3-chlorobenzyl)-9-hydroxy-4-isopropyl-7-phenyl-2H-pyrido[1,2-a]pyrazine-1,8-dione hydrochloride]: 10 to 100 nM; for `COC(=O)c1cn(Cc2ccc(Cl)c(Cl)c2)c(=O)c2c(O)c(=O)ccn12` [Example 89, methyl 2-(3,4-dichlorobenzyl)-9-hydroxy-1,8-dioxo-1,8-dihydro-2H-pyrido[1,2-a]pyrazine-4-carboxylate]: 10 to 100 nM.
The same measure for `O=C(NCc1ccc(F)cc1)c1cn2c(c(O)c1=O)C(=O)N(Cc1ccc(F)cc1)CC2` [Example 378, N-(4-fluorobenzyl)-2-(4-fluorobenzyl)-9-hydroxy-1,8-dioxo-1,3,4,8-tetrahydro-2H-pyrido[1,2-a]pyrazine-7-carboxamide]: under 10 nM; for `O=c1ccn2ccn(CCCc3ccccc3Cl)c(=O)c2c1O` [Example 71, 2-[3-(2-chlorophenyl)propyl]-9-hydroxy-2H-pyrido[1,2-a]pyrazine-1,8-dione]: 10 to 100 nM; for `O=C1c2c(O)c(=O)c(-c3nccs3)cn2CCN1CCCc1cccc(F)c1` [Example 315, 2-[3-(3-fluorophenyl)propyl]-9-hydroxy-7-(thiazol-2-yl)-3,4-dihydro-2H-pyrido[1,2-a]pyrazine-1,8-dione]: 10 to 100 nM.
The same measure for `O=C1c2c(O)c(=O)ccn2C2(CCCCC2)CN1Cc1ccc(Cl)c(Cl)c1` [Example 20, 2-(3,4-dichlorobenzyl)-9-hydroxy-3,4-dihydro-2H-pyrido[1,2-a]pyrazine-4-spiro-1′-cyclohexane-1,8-dione]: 10 to 100 nM.
For `O=C(Cc1cccnc1)Nc1cn2ccn(Cc3cccc(Cl)c3)c(=O)c2c(O)c1=O` [Example 400, N-[2-(3-chlorobenzyl)-9-hydroxy-1,8-dioxo-1,8-dihydro-2H-pyrido[1,2-a]pyrazin-7-yl]-2-(pyridin-3-yl)acetamide hydrochloride], the IC50 was under 10 nM.
The same measure for `CC(C)Nc1cn2ccn(Cc3cccc(Cl)c3)c(=O)c2c(O)c1=O` [Example 280, 2-(3-chlorobenzyl)-9-hydroxy-7-isopropylamino-2H-pyrido [1,2-a]pyrazine-1,8-dione hydrochloride]: 10 to 100 nM; for `COCC(=O)Nc1cn2ccn(Cc3cccc(Cl)c3)c(=O)c2c(O)c1=O` [Example 260, N-[2-(3-chlorobenzyl)-9-hydroxy-1,8-dioxo-1,8-dihydro-2H-pyrido[1,2-a]pyrazin-7-yl]-2-methoxyacetamide]: under 10 nM; for `O=c1ccn2c(CCCO)cn(Cc3ccc(Cl)c(Cl)c3)c(=O)c2c1O` [Example 431, 2-(3,4-dichlorobenzyl)-9-hydroxy-4-(3-hydroxypropyl)-2H-pyrido[1,2-a]pyrazine-1,8-dione]: 10 to 100 nM.
The same measure for `O=c1c(-c2nccs2)cn2ccn(Cc3cccc(Cl)c3)c(=O)c2c1O` [Example 163, 2-(3-chlorobenzyl)-9-hydroxy-7-(thiazol-2-yl)-2H-pyrido[1,2-a]pyrazine-1,8-dione hydrochloride]: under 10 nM.
On to `O=C(NCc1ccccn1)c1cn2c(c(O)c1=O)C(=O)N(Cc1cccc(Cl)c1)CC2` [Example 372, N-(pyridin-2-ylmethyl)-2-(3-chlorobenzyl)-9-hydroxy-1,8-dioxo-1,3,4,8-tetrahydro-2H-pyrido[1,2-a]pyrazine-7-carboxamide hydrochloride], for which the half-inhibitory concentration (IC50) fell in the range of 10 to 100 nM.
With `CS(=O)(=O)Nc1cn2ccn(Cc3cccc(Cl)c3)c(=O)c2c(O)c1=O` [Example 203, N-[2-(3-chlorobenzyl)-9-hydroxy-1,8-dioxo-1,8-dihydro-2H-pyrido[1,2-a]pyrazin-7-yl]methanesulfonamide], the IC50 is under 10 nM.
For `CC(C)c1cn2ccn(Cc3cccc(Cl)c3)c(=O)c2c(O)c1=O` [Example 104, 2-(3-chlorobenzyl)-9-hydroxy-7-isopropyl-2H-pyrido[1,2-a]pyrazine-1,8-dione hydrochloride], the 50% inhibitory concentration (IC50) was in the range of 10 to 100 nM.
Turning to `O=C1c2c(O)c(=O)c(NS(=O)(=O)c3cccs3)cn2CCN1Cc1ccc(F)c(Cl)c1` [Example 420, N-[2-(3-chloro-4-fluorobenzyl)-9-hydroxy-1,8-dioxo-1,3,4,8-tetrahydro-2H-pyrido[1,2-a]pyrazin-7-yl]-2-thiophenesulfonamide], the IC50 was in the range of 10 to 100 nM.
The same measure for `O=C1c2c(O)c(=O)c(-c3nccs3)cn2CCN1CCCc1ccc(Cl)cc1` [Example 297, 2-[3-(4-chlorophenyl)propyl]-9-hydroxy-7-(thiazol-2-yl)-3,4-dihydro-2H-pyrido[1,2-a]pyrazine-1,8-dione hydrochloride]: 10 to 100 nM.
